Assay results: patent US20250011326A1, “FUSED HETEROCYCLIC DERIVATIVES AND THEIR USE IN THE TREATMENT OF HBV INFECTION” (Janssen Sciences Ireland Unlimited Company, priority 2021, published 2025)

Legend:
HBV = assay: Anti-HBV activity: intracellular HBV DNA by real-time PCR in HepG2.117 cell line; assay type: cell-based, Hepatitis B virus; details: HepG2.117 cells, HBV replication induced (absence of doxycycline), 3 days of treatment, mean value
Protocol: The anti HBV activity was measured using the HepG2.117 cell line, a stable, inducibly HBV producing cell line, which replicates HBV in the absence of doxycycline (Tet-off system). The HepG2 cell line is available from ATCCR under number HB-8065 Transfection of the HepG2 cell line can be as described in Sun and Nassal 2006 Journal of Hepatology 45 (2006) 636-645 “Stable HepG2- and Huh7-based human hepatoma cell lines for efficient regulated expression of infectious hepatitis B virus”.
For the antiviral assay, HBV replication was induced, followed by a treatment with serially diluted compound in 96-well plates. After 3 days of treatment, the antiviral activity was determined by quantification of intracellular HBV DINA using real-time PCR and an HBV specific primer set and probe.

[1] = Cytotoxicity, cell viability by ATPlite Luminescence Assay; assay type: cell-based, human; details: human, HepG2 or HepG2 117 cells, 3-days incubation (unless marked *), mean value
Protocol: (§1) Cytotoxicity of the compounds was tested using HepG2 or HepG2 117 cells, incubated for 3 or 4 days in the presence of compounds. The viability of the cells was assessed using the PERKIN ELMER ATPlite Luminescence Assay System.”

HepG2 or HepG2 117 cells = assay: as above; assay type: cell-based, human; details: 3-days incubation (unless marked *), mean value
Protocol: as §1

[2] = Hepatitis B virus, HepG2.117, 72 h

Question: With CNC(=O)[C@H]1CN([C@@H](C)c2ccc(OC(F)F)cc2)C(=O)c2c3c(nn21)C[C@@H](C)N(C(=O)c1ccc(Cl)c(C#N)c1)C3 (single isomer, unassigned) [Compound 11B, (3R,7R*)-2-(4-chloro-3-cyanobenzoyl-9-((S*)-1-(4-(difluoromethoxy)phenyl)ethyl)-N,3-dimethyl-10-oxo-1,2,3,4,7,8,9,10-octahydropyrido[4′,3′:3,4]pyrazolo[1,5-a]pyrazine-7-carboxamide] as the compound, how does the EC50 (HBV; [2]) read?
Answer: 0.058 µM

Question: What about the CC50 at 3 days [1] of the same compound?
Answer: > 50 µM

Question: With CNC(=O)[C@@H]1Cn2nc3c(c2C(=O)N1[C@@H](C)c1ccc(OC(F)F)cc1)CN(C(=O)c1ccc(Cl)c(C#N)c1)[C@H](C)C3 (single isomer, unassigned) [Compound 2B, (3R,8S*)-2-(4-chloro-3-cyanobenzoyl)-9-((S*)-1-(4-(difluoromethoxy)phenyl)ethyl)-N,3-dimethyl-10-oxo-1,2,3,4,7,8,9,10-octahydropyrido[4′,3′:3,1]pyrazolo[1,5-a]pyrazine-8-carboxamide] as the compound, how does the EC50 (HBV; [2]) read?
Answer: 0.183 µM

Question: What about the CC50 at 3 days [1] of the same compound?
Answer: > 50 µM

Question: With CC(c1ccc(OC(F)F)cc1)n1ncn2nc3c(c2c1=O)CN(C(=O)c1ccc(Cl)c(C(F)(F)F)c1)[C@H](C)C3 (single isomer, unassigned) [Compound 7A, (R)-9-(4-Chloro-3-(trifluoromethyl)benzoyl)-2-((R*)-1-(4-(difluoromethoxy)phenyl)ethyl)-8-methyl-7,8,9,10-tetrahydropyrido[4′,3′:3,4]pyrazolo[1,5-d][1,2,4]triazin-1(2H)-one] as the compound, how does the EC50 (HBV; [2]) read?
Answer: 0.194 µM

Question: And the CC50 at 3 days [1]?
Answer: 46.3 µM

Question: Which EC50 (HBV; [2]) does the source give for CNC(=O)[C@H]1Cn2nc3c(c2C(=O)N1Cc1ccc(OC(F)F)cc1)CN(C(=O)c1ccc(Cl)c(C#N)c1)[C@H](C)C3 [Compound 3A] here?
Answer: 0.427 µM

Question: What about the CC50 at 3 days [1] of the same compound?
Answer: > 50 µM

Question: What does the source list for CC(c1ccc(OC(F)F)cc1)n1ncn2nc3c(c2c1=O)CN(C(=O)c1ccc(Cl)c(C#N)c1)[C@H](C)C3 (stereo in doubt) [Compound 9A, 2-Chloro-S—((R)-2-((R*)-1-(4-(difluoromethoxy)phenyl)ethyl)-8-methyl-1-oxo-1,2,7,8,9,10-hexahydropyrido[4′,3′:3,4]pyrazolo[1,5-d][1,2,4]triazine-9-carbonyl)benzonitrile]?
Answer: EC50 (HBV): 0.553 µM; CC50 (HepG2 or HepG2 117 cells): > 50 µM

Question: Which EC50 (HBV) does the source give for CC(=O)NC[C@@H]1Cn2nc3c(c2C(=O)N1[C@@H](C)c1ccc(OC(F)F)cc1)CN(C(=O)c1ccc(Cl)c(C#N)c1)[C@H](C)C3 (single isomer, unassigned) [Compound 1B, N-(((3R,8R*)-2-(4-chloro-3-cyanobenzoyl)-9-((S*)-1-(4-(difluoromethoxy)phenyl)ethyl)-3-methyl-10-oxo-1,2,3,4,7,8,9,10-octahydropyrido[4′,3′:3,4]pyrazolo[1,5-a]pyrazin-8-yl)methyl)acetamide] here?
Answer: 1.48 µM

Question: What about the CC50 at 3 days [1] of the same compound?
Answer: > 50 µM

Question: Which EC50 (HBV; [2]) does the source give for CC(=O)NC[C@@H]1CN([C@@H](C)c2ccc(OC(F)F)cc2)C(=O)c2c3c(nn21)C[C@@H](C)N(C(=O)c1ccc(Cl)c(C#N)c1)C3 (single isomer, unassigned) [Compound 13B, N-(((3R,7R*)-2-(4-chloro-3-cyanobenzoyl)-9(S*)-1-(4-(difluoromethoxy)phenyl)ethyl)-3-methyl-10-oxo-1,2,3,4,7,8,9,10-octahydropyrido[4′,3′:3,4]pyrazolo[1,5-a]pyrazin-7-yl)methyl)acetamide] here?
Answer: 0.167 µM

Question: And the CC50 at 3 days [1]?
Answer: > 50 µM

Question: Which results are given for CC(=O)NC[C@@H]1Cn2nc3c(c2C(=O)N1[C@@H](C)c1ccc(OC(F)F)cc1)CN(C(=O)c1ccc(Cl)c(C#N)c1)[C@H](C)C3 (single isomer, unassigned) [Compound 1D, N-(((3R,8S*)-2-(4-chloro-cyanobenzoyl)-9-((S*)-1-(4-(difluoromethoxy)phenyl)ethyl)-3-methyl-10-oxo-1,2,3,4,7,8,9,10-octahydropyrido[4′,3′:3,4]pyrazolo[1,5-a]pyrazin-8-yl)methyl)acetamide]?
Answer: EC50 (HBV): 0.491 µM; CC50 (HepG2 or HepG2 117 cells): > 50 µM

Question: For CC(c1ccc(OC(F)F)cc1)n1ccn2nc3c(c2c1=O)CN(C(=O)c1ccc(Cl)c(Cl)c1)[C@H](C)C3 (single isomer, unassigned) [Compound 10A, (R)-2-(3,4-dichlorobenzoyl)-9-((R*)-1-(4-(difluoromethoxy)phenyl)ethyl)-3-methyl-1,2,3,4-tetrahydropyrido[4′,3′:3,4]pyrazolo[1,5-a]pyrazin-10(9H)-one], which EC50 (HBV) is on record?
Answer: 0.072 µM

Question: What about the CC50 at 3 days [1] of the same compound?
Answer: 32.8 µM

Question: Which EC50 (HBV; [2]) does the source give for CC(c1ccc(OC(F)F)cc1)N1CC(CO)n2nc3c(c2C1=O)CN(C(=O)c1ccc(Cl)c(C#N)c1)[C@H](C)C3 (stereo partly drawn) [Compound 12, 2-Chloro-5-((3R)-9-(1-(4-(difluoromethoxy)phenyl)ethyl)-7-(hydroxymethyl)-3-methyl-10-oxo-1,2,3,4,7,8,9,10-octahydropyrido[4′,3′:3,4]pyrazolo[1,5-a]pyrazine-2-carbonyl)benzonitrile] here?
Answer: 0.068 µM

Question: What about the CC50 at 3 days [1] of the same compound?
Answer: 24.9 µM

Question: Which EC50 (HBV; [2]) does the source give for CC(c1ccc(OC(F)F)cc1)n1ncn2nc3c(c2c1=O)CN(C(=O)c1ccc(Cl)c(C#N)c1)[C@H](C)C3 (single isomer, unassigned) [Compound 9B, 2-chloro-5-((R)-2-((S*)-1-(4-(difluoromethoxy)phenyl)ethyl)-8-methyl-1-oxo-1,2,7,8,9,10-hexahydropyrido[4′,3′:3,4]pyrazolo[1,5-d][1,2,4]triazine-9-carbonyl)benzonitrile] here?
Answer: 0.13 µM

Question: And the CC50 at 3 days [1]?
Answer: > 50 µM

Question: For CC(c1ccc(OC(F)F)cc1)N1C(=O)c2c3c(nn2CC1CO)C[C@@H](C)N(C(=O)c1ccc(Cl)c(C#N)c1)C3 (stereo partly drawn) [Compound 4, 2-Chloro-5-((3R)-9-(1-(4-(difluoromethoxy)phenyl)ethyl)-8-(hydroxymethyl)-3-methyl-10-oxo-1,2,3,4,7,8,9,10-octahydropyrido[4′,3′:3,4]pyrazolo[1,5-a]pyrazine-2-carboaryl)benzonitrile], which EC50 (HBV; [2]) is on record?
Answer: 0.227 µM

Question: And the CC50 at 3 days [1]?
Answer: 25 µM

Question: For CC(c1ccc(OC(F)F)cc1)n1ccn2nc3c(c2c1=O)CN(C(=O)c1ccc(Cl)c(Cl)c1)[C@H](C)C3 (single isomer, unassigned) [Compound 10B, (R)-2-(3,4-dichlorobenzoyl)-9-((S*)-1-(4-(difluoromethoxy)phenyl)ethyl)-3-methyl-1,2,3,4-tetrahydropyrido[4′,3′:3,4]pyrazolo[1,5-a]pyrazin-10(9H)-one], which EC50 (HBV) is on record?
Answer: 0.294 µM

Question: And the CC50 (HepG2 or HepG2 117 cells)?
Answer: > 50 µM

Question: What does the source list for CC(=O)NC[C@H]1CN([C@@H](C)c2ccc(OC(F)F)cc2)C(=O)c2c3c(nn21)C[C@@H](C)N(C(=O)c1ccc(Cl)c(C#N)c1)C3 (single isomer, unassigned) [Compound 13D, N-(((3R,7S*)-2-(4-chloro-3-cyanobenzoyl)-9-((S*)-1-(4-(difluoromethoxy)phenyl)ethyl)-3-methyl-10-oxo-1,2,3,4,7,8,9,10-octahydropyrido[4′,3′:3,4]pyrazolo[1,5-a]pyrazin-7-yl)methyl)acetamide]?
Answer: EC50 (HBV; [2]): 0.344 µM; CC50 at 3 days [1]: > 50 µM

Question: Which EC50 (HBV) does the source give for CC(c1ccc(OC(F)F)cc1)n1ncn2nc3c(c2c1=O)CN(C(=O)c1ccc(Cl)c(C(F)(F)F)c1)[C@H](C)C3 (stereo in doubt) [Compound 7B, (R)-9-(4-chloro-3-(trifluoromethyl)benzoyl)-2-((S*)-1-(4-(difluoromethoxy)phenyl)ethyl)methyl-7,8,9,10-tetrahydropyrido[4′,3′:3,4]pyrazolo[1,5-d][1,2,4]triazin-1(2H)-one] here?
Answer: 0.262 µM

Question: And the CC50 (HepG2 or HepG2 117 cells)?
Answer: > 50 µM

Question: For CNC(=O)CC[C@H]1Cn2nc3c(c2C(=O)N1Cc1ccc(OC(F)F)cc1)CN(C(=O)c1ccc(Cl)c(C#N)c1)[C@H](C)C3 [Compound 5, 3-((3R,8S)-2-(4-chloro-3-cyanobenzoyl)-9-(4-(difluoromethoxy)benzyl)-3-methyl-10-oxo-1,2,3,4,7,8,9,10-octahydropyrido[4′3′:3,4]pyrazolo[1,5-a]pyrazin-8-yl)-N-methylpropanamide], which EC50 (HBV; [2]) is on record?
Answer: 0.414 µM

Question: What about the CC50 at 3 days [1] of the same compound?
Answer: > 50 µM

Question: What does the source list for CC(c1ccc(OC(F)F)cc1)n1ncn2nc3c(c2c1=O)CN(C(=O)c1ccc(Cl)c(Cl)c1)[C@H](C)C3 (single isomer, unassigned) [Compound 8A, (R)-9-(3,4-Dichlorobenzoyl)-2-((R*)-1-(4-(difluoromethoxy)phenyl)ethyl)-8-methyl-7,8,9,10-tetrahydropyrido[4′,3′:3,4]pyrazolo[1,5-d][1,2,4]triazin-1(2H)-one]?
Answer: EC50 (HBV; [2]): 0.067 µM; CC50 at 3 days [1]: > 50 µM

Question: What does the source list for CC1Cn2nc3c(c2C(=O)N1Cc1ccc(OC(F)F)cc1)CN(C(=O)c1ccc(Cl)c(Cl)c1)[C@H](C)C3 (single isomer, unassigned) [Compound 6A, (3R,8R*)-2-(3,4-dichlorobenzoyl)-9-(4-(difluoromethoxy)benzyl)-3,8-dimethyl-1,2,3,4,8,9-hexahydropyrido[4′,3′:3,4]pyrazolo[1,5-a]pyrazin-10(7H)-one]?
Answer: EC50 (HBV; [2]): 0.032 µM; CC50 at 3 days [1]: 4.5 µM
